Assay [1] concerns HeLa cells. The assay is described as follows: Confocal microscopy imaging of cellular penetration. It counts as cell-based. As for the experimental part:
To this end, we explored the internalization kinetics of FITC-GMA4C into the cells. At the outset, we performed a dose–response investigation using a twofold dilution, identifying optimal conditions at 6uM for peptide visualization (Figs. 2 and 3). Subsequently, HeLa cells were cultured with 6 µM FITC-GMA4C and imaged at different time points.
Figure 4 Time response of FITC-GMA4C uptake into HeLa cells. (A) Cells were cultured with 6 µM of FITC-GMA4C at 37 °C, followed by PBS washing and subsequent fixation with 4% PFA and post-fixation staining with DAPI. Images of cells were taken by confocal microscopy visualizing FITC-GMA4C (green) and DAPI (Blue). Scale bar: 100 µm. (B) Quantification of FITC-GMA4C fluorescence intensity. Bars show the mean green fluorescence intensity relative to non-treated cells and normalized to the number of cells. Values were measured using the Color Threshold tab in Fiji. […]
Given the remarkable rate and efficiency of the free peptide cellular penetration, we further investigated its capacity to enhance the delivery of large biomolecules into cells. For that purpose, we evaluated the cellular permeabilization of recombinant GFP, expressed and purified with an N- or C-terminus fusion of GMA4C: GFP, GMA4C-GFP and GFP-GMA4C, respectively (Fig. S1). […] Subsequently, we quantified the cellular uptake of the exogenous proteins using flow cytometry analysis. […]

The subject of assay [2] is HeLa cells. The assay can be described thus: Flow cytometry analysis of cellular uptake. It counts as cell-based. The following applies: free FITC 25 µM, 2 h, trypsin treated. As for the experimental part:
To evaluate the capability of GMA4C to penetrate mammalian cells, we synthesized the peptide with a fluorescein isothiocyanate (FITC) fluorescent probe at its N-terminus (FITC-GMA4C). Subsequently, we incubated HeLa cells with varying concentrations of FITC-GMA4C for two hours. After thorough washing, we visualized the cells using confocal microscopy imaging. Remarkably, we observed the accumulation and intracellular localization of FITC-GMA4C within the cells, even at low micromolar concentrations (Figs. 3A,B, and S7A). The entry of FITC-GMA4C is depicted by green dots within the cells, indicating effective peptide transduction. […] To ensure that the detected fluorescence signal originated only from peptides internalized within the cells and not from peptides bound to the cell membrane, we washed the cells and subjected them to trypsin treatment at 37 °C. […]
Figure 3 Characterization of GMA4C penetration into HeLa cells by confocal imaging and flow cytometry analysis. […] (B) Quantification of FITC-GMA4C fluorescence intensity. Bars show the mean green fluorescence intensity relative to non-treated cells and normalized to the number of cells. Values were measured using the Color Threshold tab in Fiji. […] (C) Quantification of FITC-GMA4C peptide uptake by cells. […] (D) Quantitative evaluation of flow cytometry signal intensity. Values were measured using FloJo flow cytometry software. […]

Peptide text beside a SMILES is read from it.

With `C[C@@H](O)[C@H](NC(=O)[C@H](CS)NC(=O)[C@H](Cc1ccccc1)NC(=O)[C@H](CS)NC(=O)[C@H](CCCNC(=N)N)NC(=O)[C@H](CCCNC(=N)N)NC(=O)[C@H](CCCNC(=N)N)NC(=O)[C@H](Cc1ccccc1)NC(=O)CNC(=O)[C@H](CCCNC(=N)N)NC(=O)[C@H](CS)NC(=O)[C@H](CCCNC(=N)N)NC(=O)CN)C(=O)N[C@H](C(=O)N[C@@H](Cc1c[nH]cn1)C(=O)N[C@@H](CS)C(=O)O)[C@@H](C)O` [GMA4C] (H-GRCRGFRRRCFCTTHC-OH; N-terminus and C-terminus assumed), in the assay with HeLa cells [1], the “time at which significant uptake is observed” value is recorded as “under 15 min” and the “time to reach uptake equilibrium” value is at most 30 min.

fluorescein isothiocyanate [free-FITC]: in the assay on HeLa cells [2], the “accumulation in the cell” value is listed as “only slightly accumulated”.
